Results as given in the supplement of paper PMC10307832.

Legend:
Assay in all cases: relative viability (nuclei count vs DMSO), 5 days (fraction); higher = more cells survive
[1] = compound: Cn1cncc1[C@@](N)(c1ccc(Cl)cc1)c1ccc2c(c1)c(-c1cccc(Cl)c1)cc(=O)n2C [Tipifarnib] + CC(=O)c1c(C)c2cnc(Nc3ccc(N4CCNCC4)cn3)nc2n(C2CCCC2)c1=O [Palbociclib] (partner 0.5 µM)
Outline: (§1)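 A single step with final 0.05% Triton X-100, 1% formaldehyde and 1 ug/ml Hoechst fixed the cells and stained nuclei 5 days after treatment. Lung cancer cell lines in 1536-well plates had been treated by pin tool the day after seeding with one drug alone or a fixed anchor-drug dose plus five library-drug doses (not always all listed) in √10 steps, and nuclei were counted on 4× images. Relative viability is the ratio of nuclei in treated wells to nuclei in vehicle wells, taken as the median of duplicate plates.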

[2] = compound: Cn1cncc1[C@@](N)(c1ccc(Cl)cc1)c1ccc2c(c1)c(-c1cccc(Cl)c1)cc(=O)n2C [Tipifarnib] + Cc1nc(NC(=O)N2CCC[C@H]2C(N)=O)sc1-c1ccnc(C(C)(C)C(F)(F)F)c1 [Alpelisib] (partner 2 µM)
Outline: as §1

[3] = compound: Cn1cncc1[C@@](N)(c1ccc(Cl)cc1)c1ccc2c(c1)c(-c1cccc(Cl)c1)cc(=O)n2C [Tipifarnib] + Nc1nc2[nH]cc(CCc3ccc(C(=O)N[C@@H](CCC(=O)O)C(=O)O)cc3)c2c(=O)[nH]1 [Pemetrexed] (partner 0.2 µM)
Outline: as §1

[4] = compound: Cn1cncc1[C@@](N)(c1ccc(Cl)cc1)c1ccc2c(c1)c(-c1cccc(Cl)c1)cc(=O)n2C [Tipifarnib] + O=C(c1cc(Cc2n[nH]c(=O)c3ccccc23)ccc1F)N1CCN(C(=O)C2CC2)CC1 [Olaparib] (partner 8 µM)
Outline: as §1

Cell Line | relative viability ([1]; first compound 0.01 µM) | relative viability ([1]; first compound 0.03162 µM) | relative viability ([1]; first compound 0.1 µM) | relative viability ([1]; first compound 0.3162 µM) | relative viability ([1]; first compound 1 µM) | relative viability ([2]; first compound 0.01 µM) | relative viability ([2]; first compound 0.03162 µM) | relative viability ([2]; first compound 0.1 µM) | relative viability ([2]; first compound 0.3162 µM) | relative viability ([2]; first compound 1 µM) | relative viability ([3]; first compound 0.01 µM) | relative viability ([3]; first compound 0.03162 µM) | relative viability ([3]; first compound 0.1 µM) | relative viability ([3]; first compound 0.3162 µM) | relative viability ([3]; first compound 1 µM) | relative viability ([4]; first compound 0.01 µM) | relative viability ([4]; first compound 0.03162 µM) | relative viability ([4]; first compound 0.1 µM) | relative viability ([4]; first compound 0.3162 µM) | relative viability ([4]; first compound 1 µM)
RERF-LC-KJ | 1.22 | 1.12 | 0.957 | 0.813 | 0.784 | 0.955 | 0.919 | 0.592 | 0.631 | 0.55 | 0.474 | 0.6 | 0.46 | 0.427 | 0.362 | 0.993 | 0.898 | 0.864 | 0.718 | 0.699
SK-LU-1 | 0.398 | 0.353 | 0.393 | 0.357 | 0.335 | 1.06 | 0.655 | 0.528 | 0.49 | 0.516 | 0.961 | 0.931 | 0.723 | 0.63 | 0.5 | 0.527 | 0.419 | 0.525 | 0.395 | 0.292
SK-MES-1 | 0.337 | 0.3 | 0.304 | 0.245 | 0.3 | 1.03 | 0.897 | 0.634 | 0.648 | 0.501 | 0.975 | 0.919 | 0.924 | 0.773 | 0.648 | 0.733 | 0.612 | 0.783 | 0.622 | 0.459
SW 1573 | 0.427 | 0.239 | 0.211 | 0.183 | 0.186 | 0.667 | 0.718 | 0.449 | 0.44 | 0.331 | 0.781 | 0.719 | 0.458 | 0.383 | 0.245 | 0.428 | 0.305 | 0.307 | 0.233 | 0.27
UMC-11 | 0.342 | 0.306 | 0.295 | 0.273 | 0.262 | 0.939 | 0.691 | 0.504 | 0.409 | 0.487 | 0.578 | 0.65 | 0.499 | 0.46 | 0.424 | 0.432 | 0.356 | 0.357 | 0.346 | 0.339
